Assay results as given in publication PMC4282894, “Effect of Bile Salt Hydrolase Inhibitors on a Bile Salt Hydrolase from Lactobacillus acidophilus” (Pathogens, 2014).
Where a name gives a salt, the structure may show the parent alone.

Molecular target: T1, L. acidophilus BSH (rBSH; LaciP) (Lactobacillus acidophilus, UniProt A5HKP3)
T1 construct: full-length BSH (316 aa), C-terminal His tag, pET-21b(+), E. coli BL21(DE3), Ni-NTA; about 32 kDa on SDS-PAGE
Test: two-step ninhydrin BSH assay (glycine release from glycocholic acid)
Type: biochemical
Source text: two-step ninhydrin BSH assay (glycine release from glycocholic acid) on L. acidophilus BSH (rBSH; LaciP)

T1 sequence (A5HKP3 whole entry): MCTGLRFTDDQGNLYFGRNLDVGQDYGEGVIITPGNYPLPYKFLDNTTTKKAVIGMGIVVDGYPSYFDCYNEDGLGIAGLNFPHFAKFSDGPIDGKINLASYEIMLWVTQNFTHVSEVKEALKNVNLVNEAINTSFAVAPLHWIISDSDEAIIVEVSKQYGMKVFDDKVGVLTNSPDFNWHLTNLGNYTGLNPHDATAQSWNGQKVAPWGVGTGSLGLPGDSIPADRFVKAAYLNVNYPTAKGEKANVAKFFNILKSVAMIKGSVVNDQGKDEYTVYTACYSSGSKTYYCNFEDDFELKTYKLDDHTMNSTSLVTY

Row | inhibition at 2500 µM [%] | Structure (SMILES) | also measured
1 | 99.6 | CN(C)[C@@H]1C(O)=C(C(N)=O)C(=O)[C@@]2(O)C(O)=C3C(=O)c4c(O)ccc(Cl)c4[C@@H](O)[C@H]3C[C@@H]12 [Demeclocycline Hydrochloride] | 
2 | 52.8 | O=C(O[C@@H]1Cc2c(O)cc(O)cc2O[C@@H]1c1ccc(O)c(O)c1)c1cc(O)c(O)c(O)c1 [Epicatechin monogallate] | 
3 | 36.1 | O=c1c(O)cccc2cc(O)c(O)c(O)c12 [Purpurogallin] | 
4 | 99.2 | C=C1c2cccc(O)c2C(=O)C2=C(O)[C@]3(O)C(=O)C(C(N)=O)=C(O)[C@@H](N(C)C)[C@@H]3[C@@H](O)[C@H]12 [Methacycline Hydrochloride] | 
5 | 98.3 | C[C@H]1c2cccc(O)c2C(O)=C2C(=O)[C@]3(O)C(O)=C(C(N)=O)C(=O)[C@@H](N(C)C)[C@@H]3[C@@H](O)[C@@H]21 [Doxycycline Hydrochloride] | 

Second part, the molecule before the results:

Row | Structure (SMILES) | inhibition at 2500 µM [%] | also measured
6 | CCC[C@@H]1C[C@@H](C(=O)N[C@@H]([C@H]2O[C@H](SC)[C@H](O)[C@@H](O)[C@H]2O)[C@@H](C)O)N(C)C1 [Lincomycin] | 26.8 | 
7 | O=[N+]([O-])c1cc([As](=O)(O)O)ccc1O [Roxarsone] |  | % Inhibition (2500 µM, 5 mM glycocholic acid, about 10 mM DTT, 0.1 M sodium phosphate pH 6.0, 37 °C, 30 min preincubation): 48.6%
8 | Cc1cc2nc3c(=O)[nH]c(=O)nc-3n(C[C@H](O)[C@H](O)[C@H](O)CO)c2cc1C [Riboflavin] |  | inhibition at 500 µM: 96.5%
9 | CN(C)[C@@H]1C(=O)C(C(N)=O)=C(O)[C@@]2(O)C(=O)C3=C(O)c4c(O)cccc4[C@@](C)(O)[C@H]3[C@H](O)[C@@H]12 [Oxytetracycline] | 99.6 | 
10 | O=C(/C=C/c1ccc(O)c(O)c1)OCCc1ccccc1 [Caffeic Acid Phenethyl Ester] | 71.8 | 
11 | O=c1c(O)c(-c2ccc(O)c(O)c2)oc2c(O)c(O)cc(O)c12 [Gossypetin] | 96.1 | 
12 | CC1=CC(=O)c2ccccc2C1=O [Menadione] | 97.9 | 
